Measurements from PubChem BioAssay AID212 (DTP/NCI, 2004).
Where “and” joins values, the source holds several entries; their conditions need not be identical. Equal values may be shown once. Inconclusive results are not listed.

Tested on: BDF1 mice, colon carcinoma 38 sc, T/C %
Experiment: NCI In Vivo Anticancer Drug Screen. Data for tumor model Colon Carcinoma 38 (subcutaneous) in B6D2F1 (BDF1) mice
Settings: endpoint: median tumor weight (est.), higher = larger tumour
Method in brief: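 T/C readout: treated group (T) measurement over vehicle control group (C) measurement. Endpoint is survival or tumor size in mice bearing a transplanted tumor.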

[1] = dose: 100.0 mg/kg/injection, schedule: Q07DX002 (ip), vehicle: saline with Tween-80
[2] = dose: 200.0 mg/kg/injection, schedule: Q07DX002 (ip), vehicle: saline with Tween-80
[3] = dose: 400.0 mg/kg/injection, schedule: Q07DX002 (ip), vehicle: saline with Tween-80
[4] = dose: 800.0 mg/kg/injection, schedule: Q07DX002 (ip), vehicle: saline with Tween-80
[5] = dose: 25.0 mg/kg/injection, schedule: Q07DX002 (ip), vehicle: saline with Tween-80
[6] = dose: 100.0 mg/kg/injection, schedule: Q07DX002 (ip), vehicle: Klucel (hydroxypropylcellulose) (HPC)
[7] = dose: 50.0 mg/kg/injection, schedule: Q07DX002 (ip), vehicle: saline with Tween-80
[8] = dose: 50.0 mg/kg/injection, schedule: Q07DX002 (ip), vehicle: saline
[9] = dose: 100.0 mg/kg/injection, schedule: Q07DX002 (ip), vehicle: saline
[10] = dose: 200.0 mg/kg/injection, schedule: Q07DX002 (ip), vehicle: saline
[11] = dose: 12.5 mg/kg/injection, schedule: Q07DX002 (ip), vehicle: saline
[12] = dose: 25.0 mg/kg/injection, schedule: Q07DX002 (ip), vehicle: saline

`O=C(N[C@H](CO)[C@H](O)c1ccc([N+](=O)[O-])cc1)C(Cl)Cl` was tested, and the T/C [1] was 60 % of control, the T/C (dose: 112.0 mg/kg/injection, schedule: Q07DX002 (ip), vehicle: saline with Tween-80) was 72 % of control and the T/C [2] was 91 % of control. The T/C (dose: 225.0 mg/kg/injection, schedule: Q07DX002 (ip), vehicle: saline + Tween-80 + alcohol) was 44 % of control, the T/C (dose: 225.0 mg/kg/injection, schedule: Q07DX002 (ip), vehicle: saline with Tween-80) was 95 % of control and the T/C [3] was 112 % of control. The T/C (dose: 450.0 mg/kg/injection, schedule: Q07DX002 (ip), vehicle: saline + Tween-80 + alcohol) was 85 % of control, the T/C (dose: 450.0 mg/kg/injection, schedule: Q07DX002 (ip), vehicle: saline with Tween-80) was 87 % of control and 94 % of control and the T/C [4] was 68 % of control. The T/C (dose: 900.0 mg/kg/injection, schedule: Q07DX002 (ip), vehicle: saline + Tween-80 + alcohol) was 41 % of control and the T/C (dose: 900.0 mg/kg/injection, schedule: Q07DX002 (ip), vehicle: saline with Tween-80) was 118 % of control.
For `CCC1CCCCN1C(=S)N/N=C(\C)c1ccccn1` (stereo not drawn), the T/C [5] was 121 % of control.
For `C[Si](C)(C)OSc1ccccc1[N+](=O)[O-]`, the T/C (dose: 25.0 mg/kg/injection, schedule: Q07DX002 (ip), vehicle: Klucel (hydroxypropylcellulose) (HPC)) was 118 % of control, the T/C (dose: 50.0 mg/kg/injection, schedule: Q07DX002 (ip), vehicle: Klucel (hydroxypropylcellulose) (HPC)) was 113 % of control and the T/C [6] was 110 % of control. For the same compound, the T/C (dose: 800.0 mg/kg/injection, schedule: Q07DX002 (ip), vehicle: Klucel (hydroxypropylcellulose) (HPC)) was 86 % of control.
For `O=C(Nc1cccc2c(OC(=O)C(Cl)Cl)c(N=Nc3ccc(S(=O)(=O)Nc4nccs4)cc3)cc(N=Nc3ccc(S(=O)(=O)Nc4nccs4)cc3)c12)C(Cl)Cl` (tested in a mixture with another compound), the T/C (dose: 6.25 mg/kg/injection, schedule: Q07DX002 (ip), vehicle: saline with Tween-80) was 91 % of control, the T/C (dose: 12.5 mg/kg/injection, schedule: Q07DX002 (ip), vehicle: saline with Tween-80) was 100 % of control and the T/C [5] was 77 % of control. The T/C [7] was 92 % of control and the T/C [1] was 88 % of control.
With `Cc1ccc2c(ccc(CC(=S)[S-])[n+]2C)c1` the T/C [6] was 111 % of control and 93 % of control and the T/C (dose: 200.0 mg/kg/injection, schedule: Q07DX002 (ip), vehicle: Klucel (hydroxypropylcellulose) (HPC)) was 122 % of control.
With `CCC1CN2C(=N1)c1ccccc1-c1cc(Cl)ccc12` (stereo not drawn) the T/C (dose: 3.13 mg/kg/injection, schedule: Q07DX003 (ip), vehicle: suspension in saline) was 83 % of control, the T/C (dose: 6.25 mg/kg/injection, schedule: Q07DX003 (ip), vehicle: suspension in saline) was 93 % of control and the T/C (dose: 12.5 mg/kg/injection, schedule: Q07DX003 (ip), vehicle: suspension in saline) was 118 % of control.
`Cc1cc2nc3c(=O)[nH]c(=O)nc-3n(CC(O)C(O)C(O)C(O)CO)c2cc1C` (stereo not drawn) was tested, and the T/C [8] was 100 % of control, the T/C [9] was 124 % of control and the T/C (dose: 100.0 mg/kg/injection, schedule: Q07DX002 (ip), vehicle: suspension in saline) was 77 % of control. The T/C [10] was 108 % of control, the T/C (dose: 400.0 mg/kg/injection, schedule: Q07DX002 (ip), vehicle: saline) was 100 % of control and the T/C (dose: 800.0 mg/kg/injection, schedule: Q07DX002 (ip), vehicle: saline) was 78 % of control. The T/C (dose: 800.0 mg/kg/injection, schedule: Q07DX002 (ip), vehicle: suspension in saline) was 58 % of control and 69 % of control and the T/C (dose: 1600.0 mg/kg/injection, schedule: Q07DX002 (ip), vehicle: saline) was 72 % of control.
In the case of `O=C(O)C(O)C(O)C1[O][Sb][O]C1C(=O)O` (stereo not drawn), the T/C [11] is reported as 90 % of control, the T/C [12] is reported as 35 % of control and the T/C [8] is reported as 109 % of control. The T/C [9] was 85 % of control.
`NC1=NC(O)C=C1` (stereo not drawn) was tested, and the T/C (dose: 7.5 mg/kg/injection, schedule: Q07DX002 (ip), vehicle: saline) was 90 % of control, the T/C (dose: 15.0 mg/kg/injection, schedule: Q07DX002 (ip), vehicle: saline) was 103 % of control and the T/C (dose: 30.0 mg/kg/injection, schedule: Q07DX002 (ip), vehicle: saline) was 100 % of control. The T/C (dose: 60.0 mg/kg/injection, schedule: Q07DX002 (ip), vehicle: saline) was 87 % of control.
In the case of `Cn1/c2cc/c1=C(\c1ccc(S(=O)(=O)O)cc1)c1ccc([n-]1)/C(c1ccc(S(=O)(=O)O)cc1)=c1/cc/c([nH]1)=C(\c1ccc(S(=O)(=O)O)cc1)c1ccc([n-]1)/C=2c1ccc(S(=O)(=O)O)cc1.O.O=S(=O)(O)C(F)(F)F.[Cu+2]`, the T/C [11] is reported as 79 % of control, the T/C [12] is reported as 70 % of control and the T/C [8] is reported as 77 % of control. The T/C [9] was 89 % of control and the T/C [10] was 80 % of control.
With `CC1(C)OC1CS(=O)c1ccccc1` (stereo not drawn) the T/C [5] was 110 % of control, the T/C [7] was 105 % of control and the T/C [1] was 92 % of control. The T/C [2] was 86 % of control, the T/C [3] was 105 % of control and the T/C [4] was 76 % of control.
